One series has as its system caspase 3/7. As to the kind of experiment: Evaluation of caspase activity (Caspase-Glo 3/7 Assay Kit). It counts as cell-based. The following applies: MDA-MB-231 cells, 12 hours, compared to untreated MDA-MB-231 cells; 0.5, 1, 5 μM tested. As to the method:
(§1) MDA-MB-231 breast cancer cells (ATCC #HTB-26) were plated in 96-well plates at a density of 1.0 1.5×10^4 cells/well. […] Then, media were removed and the cells were washed two times with PBS at 4° C. The cells were treated with a solution of the analysis samples and media (1:1) in an amount of 140 μL/well using Caspase-GloTM 9 Assay Kit (Cat#. […]; Promega, USA) and Caspase-GloTM 3/7 Assay Kit (Cat#. […]; Promega, USA). After the cells were incubated at 37° C. for 2 hours, luminescence was measured using InfiniteTM M1000 multi reader (Tecan). […] The values were represented as “***” for six fold or more, “**” for 4 fold to below 6 fold, and “*” for 1 fold to below 4 fold, as compared to that of untreated, normal MDA-MB-231 breast cancer cell lines.

Series [1] deals with MDA-MB-231 breast cancer cell lines. The series can be described thus: Evaluation of inhibition on cell growth (MTS). It counts as cell-based. Conditions: Homo sapiens, MDA-MB-231, 120 hours. The gist of the method:
(§2)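 Cells seeded at 3,000˜5,000 cells/100 μL, grown 24 h at 37° C (MDA-MB-231 under atmospheric conditions), then exposed to 10 μM˜0.1 nM compound. MDA-MB-231 cultured 120 h, read by MTS at 490 nm; fibroblasts cultured 72 h, TCA-fixed, SRB-stained, read at 540 nm. GI50 from growth relative to untreated and medium-only cells.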

A short description of series [2]: Toxicity to normal cells (SRB). It counts as cell-based, human. Conditions: human, Hs27 fibroblasts (normal cell line). Put shortly:
as §2

The next series has as its system caspase 9. As to the kind of experiment: Evaluation of caspase activity (Caspase-Glo 9 Assay Kit). The class given is cell-based. Conditions: MDA-MB-231 cells, 16 hours, compared to untreated MDA-MB-231 cells; 0.5, 1, 5 μM tested. As to the method: as §1
Series [3] can be described thus: Toxicity to normal cells (SRB). The class given is cell-based, mouse. The following applies: mouse, Balb/c3t3 fibroblasts (normal cell line), read-out: BalB/C (GI50). The gist of the method:
as §2

15 compounds from patent publication US8835458B2 (Hanmi Science Co., Ltd, priority 2010, dated 2014) can be followed below.

Structures can show the parent of a compound that is named as a salt. Where two headings read alike, the source gives them in different places. Some results are limits rather than exact numbers.

With `CN[C@@H](C)C(=O)N[C@H](C(=O)N1CCC[C@H]1C(=O)Nc1cc2c(Nc3ccc(F)c(Cl)c3F)ncnc2cc1OC)C(C)(C)C.Cl` [Example 1, (S)—N-(4-(3-chloro-2,4-difluorophenylamino)-7-methoxyquinazolin-6-yl)-1-((S)-3,3-dimethyl-2-((S)-2-(methylamino)propanamido)butanoyl)pyrrolidine-2-carboxamide hydrochloride], the Caspase-3 entry in the series on caspase 3/7 is given as “*** (six fold or more)”. In series [1], this compound yielded a GI50 of at most 0.1 µM. For the same compound, the GI50 at 72 h in series [2] and in series [3] was over 10 µM each time. Further, the Caspase-9 entry in the series with caspase 9 is “*** (six fold or more)”.

Regarding `CN[C@@H](C)C(=O)N[C@H](C(=O)N1CCC[C@H]1C(=O)Nc1cc2c(Nc3cccc(Cl)c3F)ncnc2cc1OCCOC)C(C)(C)C.Cl` [Example 2, (S)—N-(4-(3-chloro-2-fluorophenylamino)-7-(2-methoxyethoxy)quinazolin-6-yl)-1-((S)-3,3-dimethyl-2-((S)-2-(methylamino)propanamido)butanoyl)pyrrolidine-2-carboxamide hydrochloride], in the series on caspase 3/7, the Caspase-3 result is on record as “** (4 fold to below 6 fold)”. For the same compound, the GI50 in series [1] lay in the range of 0.1 to 1 µM. Besides, the GI50 at 72 h in series [2] and in series [3] was over 10 µM each time. Moreover, the Caspase-9 entry in the series with caspase 9 is recorded as “* (1 fold to below 4 fold)”.

Regarding `CN[C@@H](C)C(=O)N[C@H](C(=O)N1CCC[C@H]1C(=O)Nc1cc2c(Nc3cccc(Cl)c3F)ncnc2cc1OC)C(C)(C)C.Cl` [Example 7], the Caspase-3 entry in the series on caspase 3/7 is given as “*** (six fold or more)”. The Caspase-9 entry in the series on caspase 9 is “*** (six fold or more)”.

As to `CN[C@@H](C)C(=O)N[C@H](C(=O)N1CCC[C@H]1C(=O)Nc1cc2c(Nc3ccc(Cl)c(Cl)c3F)ncnc2cc1OC)C(C)(C)C.Cl` [Example 8, (S)—N-(4-(3,4-dichloro-2-fluorophenylamino)-7-methoxyquinazolin-6-yl)-1-((S)-3,3-dimethyl-2-((S)-2-(methylamino)propanamido)butanoyl)pyrrolidine-2-carboxamide hydrochloride], in the series with caspase 3/7, the Caspase-3 result was “*** (six fold or more)”. Moreover, the GI50 in series [1] is at most 0.1 µM. Moreover, the GI50 at 72 h in series [2] and in series [3] was over 10 µM throughout. For the same compound, the Caspase-9 result with caspase 9 is “*** (six fold or more)”.

Consider `CN[C@@H](C)C(=O)N[C@H](C(=O)N1CCC[C@H]1C(=O)Nc1cc2c(Nc3ccc(Br)cc3F)ncnc2cc1OC)C(C)(C)C.Cl` [Example 9, (S)—N-(4-(4-bromo-2-fluorophenylamino)-7-methoxyquinazolin-6-yl)-1-((S)-3,3-dimethyl-2-((S)-2-(methylamino)propanamido)butanoyl)pyrrolidine-2-carboxamide hydrochloride], for which the Caspase-3 result in the series with caspase 3/7 was “*** (six fold or more)”. In series [1], this compound showed a GI50 of at most 0.1 µM. Also, the GI50 at 72 h in series [2] and in series [3] was over 10 µM each time. For the same compound, in the series with caspase 9, the Caspase-9 entry is “*** (six fold or more)”.

Regarding `CN[C@@H](C)C(=O)N[C@H](C(=O)N1CCC[C@H]1C(=O)Nc1cc2c(Nc3ccccc3F)ncnc2cc1OC)C(C)(C)C.Cl` [Example 10, (S)-1-((S)-3,3-dimethyl-2-((S)-2-(methylamino)propanamido)butanoyl)-N-(4-(2-fluorophenylamino)-7-methoxyquinazolin-6-yl)pyrrolidine-2-carboxamide hydrochloride], in the series on caspase 3/7, the Caspase-3 entry is on record as “*** (six fold or more)”. Also, the GI50 in series [1] is at most 0.1 µM. The GI50 at 72 h in series [2] and in series [3] was over 10 µM in each case. The Caspase-9 result in the series on caspase 9 is on record as “*** (six fold or more)”.

On to `CN[C@@H](C)C(=O)N[C@H](C(=O)N1CCC[C@H]1C(=O)Nc1cc2c(Nc3ccccc3)ncnc2cc1OC)C(C)(C)C.Cl` [Example 11, (S)—N-(4-phenylamino-7-methoxyquinazolin-6-yl)-1-((S)-3,3-dimethyl-2-((S)-2-(methylamino)propanamido)butanoyl)pyrrolidine-2-carboxamide hydrochloride], for which, in the series with caspase 3/7, the Caspase-3 entry is listed as “*** (six fold or more)”. The GI50 in series [1] was at most 0.1 µM. For the same compound, the GI50 at 72 h in series [2] and in series [3] was over 10 µM in each case. Moreover, the Caspase-9 entry in the series with caspase 9 is reported as “*** (six fold or more)”.

For the compound `CN[C@@H](C)C(=O)N[C@H](C(=O)N1CCC[C@H]1C(=O)Nc1cc2c(Nc3ccc(F)c(Cl)c3F)ncnc2cc1OC)C1CCCCC1.Cl` [Example 15, (S)—N-(4-(3-chloro-2,4-difluorophenylamino)-7-methoxyquinazolin-6-yl)-1-((S)-2-cyclohexyl-2-((S)-2-(methylamino)propanamido)acetyl)pyrrolidine-2-carboxamide hydrochloride], in the series on caspase 3/7, the Caspase-3 entry is listed as “*** (six fold or more)”. This compound also yielded a GI50 in series [1] of at most 0.1 µM. Moreover, the GI50 at 72 h in series [2] and in series [3] was over 10 µM throughout. The Caspase-9 result in the series on caspase 9 is given as “*** (six fold or more)”.

Consider `CN[C@@H](C)C(=O)N[C@H](C(=O)N1CCC[C@H]1C(=O)Nc1cc2c(Nc3ccc(F)c(F)c3F)ncnc2cc1OC)C(C)(C)C.Cl` [Example 17, (S)-1-((S)-3,3-dimethyl-2-((S)-2-(methylamino)propanamido)butanoyl)-N-(7-methoxy-4-(2,3,4-trifluorophenylamino)quinazolin-6-yl)pyrrolidine-2-carboxamide hydrochloride], for which the Caspase-3 entry with caspase 3/7 was “*** (six fold or more)”. The same compound showed a GI50 in series [1] of at most 0.1 µM. The GI50 at 72 h in series [2] and in series [3] was over 10 µM throughout. Besides, the Caspase-9 entry in the series with caspase 9 was “*** (six fold or more)”.

For `CCN1CCN(c2ccc(Nc3ncnc4cc(OC)c(NC(=O)[C@@H]5CCCN5C(=O)[C@@H](NC(=O)[C@H](C)NC)C(C)(C)C)cc34)cc2F)CC1` [Example 71, (S)-1-((S)-3,3-dimethyl-2-((S)-2-(methylamino)propanamido)butanoyl)-N-(4-(4-(4-ethylpiperazin-1-yl)-3-fluorophenylamino)-7-methoxyquinazolin-6-yl)pyrrolidine-2-carboxamide dihydrochloride], in series [1], the GI50 was at most 0.1 µM. The GI50 at 72 h in series [2] and in series [3] was over 10 µM throughout.

For `CN[C@@H](C)C(=O)N[C@H](C(=O)N1CCC[C@H]1C(=O)Nc1cc2c(Nc3ccc(N4CCS(=O)(=O)CC4)cc3)ncnc2cc1OC)C(C)(C)C` [Example 72, (S)—N-(4-((1,1-dioxide-4-thiomorpholinyl)phenylamino)-7-methoxyquinazolin-6-yl)-1-((S)-3,3-dimethyl-2-((S)-2-(methylamino)propanamido)butanoyl)pyrrolidine-2-carboxamide], the GI50 in series [1] is at most 0.1 µM. Also, the GI50 at 72 h in series [2] and in series [3] was over 10 µM each time.

Consider `CN[C@@H](C)C(=O)N[C@H](C(=O)N1CCC[C@H]1C(=O)Nc1cc2c(Nc3ccncc3)ncnc2cc1OC)C(C)(C)C` [Example 73, (S)-1-((S)-3,3-dimethyl-2-((S)-2-(methylamino)propanamido)butanoyl)-N-(7-methoxy-4-(pyridin-4-ylamino)quinazolin-6-yl)pyrrolidine-2-carboxamide hydrochloride], for which the GI50 in series [1] is at most 0.1 µM. For the same compound, the GI50 at 72 h in series [2] and in series [3] was over 10 µM each time.

In the case of `CNC(=O)c1ccc(Nc2ncnc3cc(OC)c(NC(=O)[C@@H]4CCCN4C(=O)[C@@H](NC(=O)[C@H](C)NC)C(C)(C)C)cc23)cc1` [Example 74, (S)-1-((S)-3,3-dimethyl-2-((S)-2-(methylamino)propanamido)butanoyl)-N-(7-methoxy-4-(4-(methylcarbamoyl)phenylamino)quinazolin-6-yl)pyrrolidine-2-carboxamide], in series [1], the GI50 is at most 0.1 µM. In addition, the GI50 at 72 h in series [2] and in series [3] was over 10 µM throughout.

In the case of `CN[C@@H](C)C(=O)N[C@H](C(=O)N1CCC[C@H]1C(=O)Nc1cc2c(Nc3cc(NC(C)=O)ccc3Cl)ncnc2cc1OC)C(C)(C)C` [Example 75, (S)—N-(4-(5-acetamino-2-chlorophenylamino)-7-methoxyquinazolin-6-yl)-1-((S)-3,3-dimethyl-2-((S)-2-(methylamino)propanamido)butanoyl)pyrrolidine-2-carboxamide], in series [1], the GI50 is at most 0.1 µM. Also, the GI50 at 72 h in series [2] and in series [3] was over 10 µM in each case.

In turn, `CN[C@@H](C)C(=O)N[C@H](C(=O)N1CCC[C@H]1C(=O)Nc1cc2c(Nc3ccc(NC(=O)c4ccccc4)cc3)ncnc2cc1OC)C(C)(C)C` [Example 76, (S)—N-(4-(4-benzamidophenylamino)-7-methoxyquinazolin-6-yl)-1-((S)-3,3-dimethyl-2-((S)-2-(methylamino)propanamido)butanoyl)pyrrolidine-2-carboxamide] gave a GI50 in series [1] of at most 0.1 µM. The GI50 at 72 h in series [2] and in series [3] was over 10 µM throughout.
